{"source": "patent EP0597303A2", "about": "“Cephalosporin derivatives” (priority 1992, dated 1994)", "assay_in_all_cases": "MIC, Agar (Mueller Hinton) Dilution Method", "assay_type_in_all_cases": "cell-based", "key": {"Bacillus megaterium 164": {"system": "Bacillus megaterium 164", "conditions": "Priestia megaterium; Bacillus megaterium 164; Gram Positive and Others; read-out: MIC", "text": "(§1) The in vitro activity of the compounds of formula I of the present invention as measured by the Minimum Inhibitory Concentration (MIC) in micrograms/ml utilizing the Agar (Mueller Hinton) Dilution Method against a variety of Gram-positive and Gram-negative organisms, is set forth in Table 1."}, "Bacillus subtilis 558": {"system": "Bacillus subtilis 558", "conditions": "Bacillus subtilis 558; Gram Positive and Others; read-out: MIC", "text": "as §1"}, "Candida albicans 155": {"system": "Candida albicans 155", "conditions": "Gram Positive and Others", "text": "as §1"}, "[1]": {"system": "Citrobacter freundii BS-16", "conditions": "Citrobacter freundii, BS16", "text": "as §1"}, "E. coli 1269B": {"system": "E. coli 1269B", "conditions": "Escherichia coli, Gram Negative", "text": "as §1"}, "E. coli 1573E": {"system": "E. coli 1573E", "conditions": "Escherichia coli; E. coli 1573E; Gram Negative; read-out: MIC", "text": "as §1"}, "E. coli 1894 E": {"system": "E. coli 1894 E", "conditions": "Escherichia coli; E. coli 1894 E; Gram Negative; read-out: MIC", "text": "as §1"}, "E. coli 2721B": {"system": "E. coli 2721B", "conditions": "Escherichia coli, 2721B", "text": "as §1"}, "E. coli 4": {"system": "E. coli 4", "conditions": "Escherichia coli, 4", "text": "as §1"}, "E. coli 94": {"system": "E. coli 94", "conditions": "Escherichia coli, Gram Negative", "text": "as §1"}, "E. coli ATCC 25922": {"system": "E. coli ATCC 25922", "conditions": "Escherichia coli, ATCC25922; E. coli ATCC 25922; Gram Negative; read-out: MIC", "text": "as §1"}, "E. coli DC-0": {"system": "E. coli DC-0", "conditions": "Escherichia coli, DC0, Gram Negative", "text": "as §1"}, "E. coli HMS1": {"system": "E. coli HMS1", "conditions": "Escherichia coli, HMS1", "text": "as §1"}, "E. coli Leo HA2": {"system": "E. coli Leo HA2", "conditions": "Escherichia coli, LEOHA2, Gram Negative", "text": "as §1"}, "Enter. cloacae 4946": {"system": "Enter. cloacae 4946", "conditions": "Enterobacter cloacae, Gram Negative", "text": "as §1"}, "Enter. cloacae 5699": {"system": "Enter. cloacae 5699", "conditions": "Enterobacter cloacae, Gram Negative", "text": "as §1"}, "Enterobacter cloacae P99": {"system": "Enterobacter cloacae P99", "text": "as §1"}, "K. oxytoca 1082EN": {"system": "K. oxytoca 1082EN", "conditions": "Klebsiella oxytoca; K. oxytoca 1082EN; Gram Negative; read-out: MIC", "text": "as §1"}, "K. pneumoniae 369": {"system": "K. pneumoniae 369", "conditions": "Klebsiella pneumoniae; K. pneumoniae 369; Gram Negative; read-out: MIC", "text": "as §1"}, "Prot. mirabilis 2": {"system": "Prot. mirabilis 2", "conditions": "Proteus mirabilis, 2", "text": "as §1"}, "Prot. vulgaris 1028 BC": {"system": "Prot. vulgaris 1028 BC", "conditions": "Proteus vulgaris, 1028BC", "text": "as §1"}, "Ps. aeruginosa 56-1B": {"system": "Ps. aeruginosa 56-1B", "conditions": "Pseudomonas aeruginosa, 561B; Ps. aeruginosa 56-1B; Gram Negative; read-out: MIC", "text": "as §1"}, "Ps. aeruginosa 56M": {"system": "Ps. aeruginosa 56M", "conditions": "Pseudomonas aeruginosa, Gram Negative", "text": "as §1"}, "Ps. aeruginosa 765": {"system": "Ps. aeruginosa 765", "conditions": "Pseudomonas aeruginosa, Gram Negative", "text": "as §1"}, "Ps. aeruginosa 8780": {"system": "Ps. aeruginosa 8780", "conditions": "Pseudomonas aeruginosa, Gram Negative", "text": "as §1"}, "[2]": {"system": "Ps. aeruginosa ATCC 27853", "conditions": "Pseudomonas aeruginosa, ATCC27853, Gram Negative", "text": "as §1"}, "Ps. aeruginosa K799/WT": {"system": "Ps. aeruginosa K799/WT", "conditions": "Pseudomonas aeruginosa, Gram Negative", "text": "as §1"}, "Ps. cepacia 1973 B": {"system": "Ps. cepacia 1973 B", "conditions": "Burkholderia cepacia, Gram Negative", "text": "as §1"}, "Ser. marcescens MA": {"system": "Ser. marcescens MA", "conditions": "Serratia marcescens, Gram Negative", "text": "as §1"}, "Staph. aureus 3037B": {"system": "Staph. aureus 3037B", "conditions": "Staphylococcus aureus, 3037B", "text": "as §1"}, "Staph. aureus 3647B": {"system": "Staph. aureus 3647B", "conditions": "Staphylococcus aureus, 3647B", "text": "as §1"}, "Staph. aureus 67": {"system": "Staph. aureus 67", "conditions": "Staphylococcus aureus; Staph. aureus 67; methicillin-resistant; Gram Positive and Others; read-out: MIC", "text": "as §1"}, "Staph. aureus 753": {"system": "Staph. aureus 753", "conditions": "Staphylococcus aureus, 753", "text": "as §1"}, "Staph. aureus ATCC 25923": {"system": "Staph. aureus ATCC 25923", "conditions": "Staphylococcus aureus, ATCC25923, Gram Positive and Others", "text": "as §1"}, "[3]": {"system": "Staphylococcus aureus Smith", "conditions": "Staphylococcus aureus", "text": "as §1"}, "[4]": {"system": "Str. pneumoniae N82-012-MC", "conditions": "Streptococcus pneumoniae, N82012MC; Str. pneumoniae N82-012-MC; Gram Positive and Others; read-out: MIC", "text": "as §1"}, "Str. pyogenes 503-782": {"system": "Str. pyogenes 503-782", "conditions": "Streptococcus pyogenes, 503782; Str. pyogenes 503-782; Gram Positive and Others; read-out: MIC", "text": "as §1"}, "[5]": {"system": "Streptococcus pneumoniae 6303", "conditions": "Streptococcus pneumoniae 6303; Gram Positive and Others; read-out: MIC", "text": "as §1"}, "Xan. maltophilia 2897B": {"system": "Xan. maltophilia 2897B", "conditions": "Stenotrophomonas maltophilia, Gram Negative", "text": "as §1"}}, "note": "Where a name gives a salt, the structure may show the parent alone."}
{"compound": "N#CCC(=O)N[C@@H]1C(=O)N2C(C(=O)O)=C(COC(=O)N[C@@H]3CCN(c4c(F)cc5c(=O)c(C(=O)O)cn(C6CC6)c5c4F)C3)CS[C@H]12", "note": "[Formula Ibb, [6R-[3(R^*), 6 alpha, 7 beta]]-3-[[[[[1-(3-Carboxy-1-cyclopropyl-6,8-difluoro-1,4-dihydro-4-oxo-7-quinolinyl-3-pyrrolidinyi]amino]carbonyl]oxy]methyL]-7-[(cyanoacetyl)amino]-8-oxo-5-thia-1-azabicyclo[4.2.0]oct-2-ene-2-carboxylic acid monosodium salt]", "values": [{"measurement": "MIC", "setting": "Bacillus megaterium 164", "value": 0.0625, "unit": "µg/mL"}, {"measurement": "MIC", "setting": "Bacillus subtilis 558", "value": 0.0625, "unit": "µg/mL"}, {"measurement": "MIC", "setting": "Candida albicans 155", "value": "> 128", "unit": "µg/mL"}, {"measurement": "MIC", "setting": "[1]", "value": 0.0313, "unit": "µg/mL"}, {"measurement": "MIC", "setting": "E. coli 1269B", "value": 0.0625, "unit": "µg/mL"}, {"measurement": "MIC", "setting": "E. coli 1573E", "value": 0.0625, "unit": "µg/mL"}, {"measurement": "MIC", "setting": "E. coli 1894 E", "value": 0.0625, "unit": "µg/mL"}, {"measurement": "MIC", "setting": "E. coli 2721B", "value": 0.0313, "unit": "µg/mL"}, {"measurement": "MIC", "setting": "E. coli 4", "value": 0.125, "unit": "µg/mL"}, {"measurement": "MIC", "setting": "E. coli 94", "value": 0.125, "unit": "µg/mL"}, {"measurement": "MIC", "setting": "E. coli ATCC 25922", "value": 0.0625, "unit": "µg/mL"}, {"measurement": "MIC", "setting": "E. coli DC-0", "value": 2, "unit": "µg/mL"}, {"measurement": "MIC", "setting": "E. coli HMS1", "value": 0.0313, "unit": "µg/mL"}, {"measurement": "MIC", "setting": "E. coli Leo HA2", "value": "≤ 0.0156", "unit": "µg/mL"}, {"measurement": "MIC", "setting": "Enter. cloacae 4946", "value": 0.125, "unit": "µg/mL"}, {"measurement": "MIC", "setting": "Enter. cloacae 5699", "value": 0.25, "unit": "µg/mL"}, {"measurement": "MIC", "setting": "Enterobacter cloacae P99", "value": "≤ 0.0156", "unit": "µg/mL"}, {"measurement": "MIC", "setting": "K. oxytoca 1082EN", "value": 0.0625, "unit": "µg/mL"}, {"measurement": "MIC", "setting": "K. pneumoniae 369", "value": 0.5, "unit": "µg/mL"}, {"measurement": "MIC", "setting": "Prot. mirabilis 2", "value": 0.125, "unit": "µg/mL"}, {"measurement": "MIC", "setting": "Prot. vulgaris 1028 BC", "value": 0.0313, "unit": "µg/mL"}, {"measurement": "MIC", "setting": "Ps. aeruginosa 56-1B", "value": 0.5, "unit": "µg/mL"}, {"measurement": "MIC", "setting": "Ps. aeruginosa 56M", "value": 0.25, "unit": "µg/mL"}, {"measurement": "MIC", "setting": "Ps. aeruginosa 765", "value": 2, "unit": "µg/mL"}, {"measurement": "MIC", "setting": "Ps. aeruginosa 8780", "value": 2, "unit": "µg/mL"}, {"measurement": "MIC", "setting": "[2]", "value": 2, "unit": "µg/mL"}, {"measurement": "MIC", "setting": "Ps. aeruginosa K799/WT", "value": 1, "unit": "µg/mL"}, {"measurement": "MIC", "setting": "Ps. cepacia 1973 B", "value": 4, "unit": "µg/mL"}, {"measurement": "MIC", "setting": "Ser. marcescens MA", "value": 8, "unit": "µg/mL"}, {"measurement": "MIC", "setting": "Staph. aureus 3037B", "value": 0.125, "unit": "µg/mL"}, {"measurement": "MIC", "setting": "Staph. aureus 3647B", "value": 0.125, "unit": "µg/mL"}, {"measurement": "MIC", "setting": "Staph. aureus 67", "value": 0.5, "unit": "µg/mL"}, {"measurement": "MIC", "setting": "Staph. aureus 753", "value": 0.125, "unit": "µg/mL"}, {"measurement": "MIC", "setting": "Staph. aureus ATCC 25923", "value": 0.25, "unit": "µg/mL"}, {"measurement": "MIC", "setting": "[3]", "value": 0.125, "unit": "µg/mL"}, {"measurement": "MIC", "setting": "[4]", "value": 0.25, "unit": "µg/mL"}, {"measurement": "MIC", "setting": "Str. pyogenes 503-782", "value": 0.0625, "unit": "µg/mL"}, {"measurement": "MIC", "setting": "[5]", "value": 0.0625, "unit": "µg/mL"}, {"measurement": "MIC", "setting": "Xan. maltophilia 2897B", "value": 0.5, "unit": "µg/mL"}]}
